Source: patent US6784155B1, “Inhibitor and stimulator of stem cell proliferation and uses thereof” (Wellstat Therapeutics Corporation, priority 1996, dated 2004)
No end group written: not given here.

Legend:
[1] = Distribution of ubiquitin fusion proteins between soluble fraction and precipitate of E. coli lysate (SDS-PAGE); assay type: physicochemical; conditions: after centrifugation of the bacterial lysate
Procedure: To obtain protein for assay, 100 ml starter cultures in 250 ml shake flasks were grown from single colonies by overnight incubation (16-20 hours) in 2×YT medium with ampicillin (100 μg/ml), neomycin (10 μg/ml) and 1% glucose. Shaker flask cultures were maintained at 30° C. and 250 rpm in a New Brunswick environmental shaker incubator. The next morning the culture was diluted to liter with medium Cells were induced by IPTG addition to 1 mM (final dilution) at OD600=0.5 and harvested at OD600=0.8 by centrifugation. The harvested cells were resuspended in hypotonic lysis buffer (100 μl of 50 mM Tris, pH 10.0). The bacterial cells were lysed by subjecting the suspension to three cycles of freeze-thaw (dry ice-ethanol bath for freezing and 60° C. for thawing). The suspension was then sonicated for 10 min and centrifuged at 12,000 g for 10 min. The resulting supernatant was designated as “S1”. The cell pellet was resuspended in 50 mM Tris, pH10 and 2×SDS tricine loading buffer (Novex, San Diego, Calif.) (1:1). The mixture was then heated at 95° C. for 15 min and centrifuged at 12,000 g for 10 min. The portion of the precipitate capable of being resolubilized in this manner was called “P1”. The portion of the precipitate derived from the remaining pellet was called “P2”. P2 was resuspended in loading buffer as for P1. Samples from S1, P1 and P2 were analyzed by SDS-PAGE. […]

CFU-MIX [2] = experiment: Stimulation of cycling of quiescent murine stem cells, CFU-MIX cycling assay in vitro; assay type: cell-based, mouse
Procedure: Microgram per milliliter doses of hemoglobin chains, myoglobin and peptides were assayed for stimulation of quiescent stem cells. Bone marrow was obtained from untreated B6D2F1 tested in the CFU-MIX cycling assay as in Example 24. Stem cells isolated from untreated B6D2F1 mice are normally slowly cycling unless stimulated (e.g. by testosterone propionate (cf. Example 1) or chemotherapy such as 5FU (cf. Example 4)) to enter into cycle.

CFU-MIX [3] = experiment: as above; assay type: cell-based, mouse; conditions: Table 44, 100 ng/ml, alone
[4] = tested on: cobblestone area forming cells (CAFC); experiment: Cobblestone assay (CAFC); assay type: cell-based, mouse
Procedure: The cobblestone assay was conducted as described by Ploemacher and colleagues (Ploemacher et al., Blood 74:2755-63, 1989; van der Sluijs et al., Exp. Hematol. 18:893-6, 1990; Ploemacher et al., Blood 78:2527-33, 1991; Ploemacher et al., J. Tiss. Cult. Meth. 13:63-68, 1991; Down and Ploemacher, Exp. Hematol. 21:213-21, 1993). The cobblestone assay measures the appearance of groups of cells (or “cobblestones”) within a monolayer of stromal cells. Very primitive stem cells will not form colonies in soft agar but do form cobblestones in the presence of a stromal monolayer. The cells which form cobblestones are referred to as “cobblestone area forming cells” (CAFC). The more differentiated (e.g., GM-CFC) progenitors form transient cobblestones which appear and then disappear within the first few weeks of culture whereas more primitive stem cells (e.g., long-term repopulating cells) form cobblestones which appear only after 4-5 weeks of culture. Thus, CAFC forming on days 7-14 of culture are enriched in CFU-GM, CAFC forming on […] are enriched in CFU-MIX, and CAFC forming on days 28-35 are enriched in long-term repopulating cells. […]
The frequency of cobblestone area forming cells (CAFC) was calculated as previously described (Ploemacher et al., Blood 78:2527-33, 1991; Ploemacher et al., J. Tiss. Cult. Meth. 13:63-68, 1991; Breems et al., Leukemia 8:1095-104, 1994). […]

CFU-MIX [5] = experiment: Stimulation of cycling of quiescent murine stem cells after i.v. administration; assay type: in vivo; conditions: Table 43, untreated B6D2F1 mice, 150 μg/mouse i.v., marrow 24 hours later
Procedure: Human alpha hemoglobin was injected i.v. into untreated B6D2F1 mice. 24 hours later, the mice were sacrificed, bone marrow collected from femurs and the CFU-MIX assay conducted as in Example 24.

Substance | fraction of bacterial lysate containing the peptide [1] | % Kill (CFU-MIX [2]; Table 40, untreated B6D2F1 bone marrow, 10 μg/ml) [%] | % Kill (CFU-MIX [3]) [%] | % Kill (CFU-MIX [2]; Table 37, untreated B6D2F1 bone marrow, 1 μg/ml) [%] | % Kill (CFU-MIX [2]; Table 37, untreated B6D2F1 bone marrow, 10 μg/ml) [%] | % Kill (CFU-MIX [2]; Table 37, untreated B6D2F1 bone marrow, 100 μg/ml) [%] | % Kill (CFU-MIX [2]; Table 39, untreated B6D2F1 bone marrow, 100 μg/ml) [%] | % Kill (CFU-MIX [2]; Table 40, untreated B6D2F1 bone marrow, 100 μg/ml) [%] | increase of the proportion of late-forming CAFC ([4]; cycling stem cells (testosterone propionate treated B6D2F1), 100 ng/10^6 cells, 4 hours) | effect on CAFC of non-cycling stem cells ([4]; non-cycling stem cells) | % Kill (CFU-MIX [5]) [%]
FPHFDLSHGSAQV [Peptide 43-55, amino acids 43-55 of human alpha hemoglobin] | contained in the soluble fraction | 26 |  |  |  |  |  |  |  |  | 
Human alpha chain: purified, non-recombinant human alpha hemoglobin chain isolated by reversed-phase HPLC |  |  | 48 | 0 | 24 | 40 | 41 | 30 | approximately 5 fold | no effect | 48
